Results from patent US20130109682A1, “CYCLIC ETHER COMPOUNDS USEFUL AS KINASE INHIBITORS” (NOVARTIS AG, priority 2010, published 2013).

Experiments:
[1] = biological target: GSK3β (Homo sapiens, UniProt P49841); experiment: GSK3β ATP depletion assay; type: biochemical; details: ATP depletion assay; read-out: GSK3b IC50
Procedure, shortened: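 Human GSK3β (5 nM) preincubated 15 min with 10 μM biotinylated phospho-CREB peptide in pH 7.5 Tris buffer (15 mM MgCl2, 1 mM DTT, 0.1% BSA, 2.5% DMSO). Reaction started with 2 μM ATP and run to about 50% ATP depletion. Remaining ATP measured by KinaseGlo luminescence.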

[2] = test system: KMS11 (human myeloma cell line); experiment: Cell proliferation assay (CellTiter-Glo), KMS11; type: cell-based; details: Homo sapiens, KMS-11; KMS11 cells, cell proliferation; read-out: KMS11-Luc EC50
Procedure, shortened: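 KMS11 cells in IMDM with 10% FBS and sodium pyruvate, seeded at 2000 cells/well on assay day. Compound added at 2× to equal volume of cells, incubated 3 days at 37° C. Viability read by CellTiter-Glo luminescence; EC50 derived.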

[3] = biological target: PIM1 (Homo sapiens, UniProt P11309); experiment: Pim 1 AlphaScreen assay (high ATP); type: biochemical; details: read-out: Pim1 IC50
Procedure, shortened: (§1)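 This is a bead-based AlphaScreen run at high ATP (11-125× Km) with biotin-Bad peptide (100 nM in the substrate mix), in 50 mM Hepes pH 7.5, 5 mM MgCl2, 0.05% BSA, 0.01% Tween-20, 1 mM DTT and 2.5% DMSO final. After ~2 h the reaction was stopped with EDTA. Phospho-peptide was detected overnight with anti-phospho Ser/Thr antibody on Protein A and streptavidin beads, giving IC50.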

[4] = biological target: PIM2 (Homo sapiens, UniProt Q9P1W9); experiment: Pim 2 AlphaScreen assay (high ATP); type: biochemical; details: read-out: Pim2 IC50
Procedure, shortened: as §1

[5] = biological target: PIM3 (Homo sapiens, UniProt Q86V86); experiment: Pim 3 AlphaScreen assay (high ATP); type: biochemical; details: read-out: Pim3 IC50
Procedure, shortened: as §1

PIM1, sequence (P11309 whole entry): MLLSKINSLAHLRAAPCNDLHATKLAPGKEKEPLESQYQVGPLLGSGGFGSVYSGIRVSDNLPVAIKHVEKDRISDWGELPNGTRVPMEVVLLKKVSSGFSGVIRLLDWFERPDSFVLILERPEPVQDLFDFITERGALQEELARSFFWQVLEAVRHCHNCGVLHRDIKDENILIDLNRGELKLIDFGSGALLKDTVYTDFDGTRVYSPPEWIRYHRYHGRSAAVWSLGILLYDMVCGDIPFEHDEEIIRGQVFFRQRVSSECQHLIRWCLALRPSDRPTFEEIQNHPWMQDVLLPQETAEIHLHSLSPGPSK
GSK3β, sequence (P49841 whole entry, species assumed): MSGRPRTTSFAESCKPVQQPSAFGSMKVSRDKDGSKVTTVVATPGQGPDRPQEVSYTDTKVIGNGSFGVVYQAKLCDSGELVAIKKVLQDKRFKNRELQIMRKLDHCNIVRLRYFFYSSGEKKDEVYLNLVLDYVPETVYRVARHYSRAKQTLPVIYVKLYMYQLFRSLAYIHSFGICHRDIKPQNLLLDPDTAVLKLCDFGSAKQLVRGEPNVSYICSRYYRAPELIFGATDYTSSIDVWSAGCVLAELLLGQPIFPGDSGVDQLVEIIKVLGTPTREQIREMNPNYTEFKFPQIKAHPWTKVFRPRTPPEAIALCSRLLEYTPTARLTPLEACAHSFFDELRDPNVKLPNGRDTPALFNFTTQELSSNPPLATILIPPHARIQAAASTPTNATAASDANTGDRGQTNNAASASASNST
PIM2, sequence (Q9P1W9 whole entry): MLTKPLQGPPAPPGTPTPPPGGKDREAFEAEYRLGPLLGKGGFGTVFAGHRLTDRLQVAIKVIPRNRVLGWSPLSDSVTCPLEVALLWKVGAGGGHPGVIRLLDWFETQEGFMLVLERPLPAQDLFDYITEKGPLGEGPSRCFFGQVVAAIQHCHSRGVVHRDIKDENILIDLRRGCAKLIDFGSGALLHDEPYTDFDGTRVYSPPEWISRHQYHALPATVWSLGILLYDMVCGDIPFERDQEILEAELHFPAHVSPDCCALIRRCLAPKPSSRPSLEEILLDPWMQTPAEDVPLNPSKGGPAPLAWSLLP

| IC50 [1] [nM] | EC50 [2] [nM] | IC50 [3] [nM] | IC50 [4] [nM] | IC50 [5] [nM] | Compound |
| --- | --- | --- | --- | --- | --- |
| 4390 | 60 | 0.27 | 5.1 | 5.76 | CNC(=O)c1ccc(F)c(-c2nc(C(=O)Nc3cnccc3C3C[C@@H](N)[C@H](O)[C@@H](C(C)C)O3)ccc2F)c1F (stereo in doubt) [Example 316, N-(4-((2S,4R,5S,6R)-4-amino-5-hydroxy-6-isopropyltetrahydro-2H-pyran-2-yl)pyridin-3-yl)-6-(2,6-difluoro-3-(methylcarbamoyl)phenyl)-5-fluoropicolinamide] |
| 1570 | 30 | 0.07 | 3.5 | 1.8 | CC(C)[C@H]1OC(c2ccncc2NC(=O)c2ccc(F)c(-c3c(F)cc(OCCO)cc3F)n2)C[C@@H](N)[C@@H]1O (stereo in doubt) [Example 319, N-(4-((2S,4R,5S,6R)-4-amino-5-hydroxy-6-isopropyltetrahydro-2H-pyran-2-yl)pyridin-3-yl)-6-(2,6-difluoro-4-(2-hydroxyethoxy)phenyl)-5-fluoropicolinamide] |
| 1290 | > 10000 | 12500 | > 25000 | > 25000 | C[C@H]1O[C@@H](c2ccncc2NC(=O)c2nn(Cc3ccccc3)cc2N)C[C@@H](O)[C@]1(C)O [Example 218, 4-amino-1-benzyl-N-(4-((2R,4R,5S,6R)-4,5-dihydroxy-5,6-dimethyltetrahydro-2H-pyran-2-yl)pyridin-3-yl)-1H-pyrazole-3-carboxamide] |
| 128 | 360 | 0.06 | 8.6 | 1.4 | Cc1cc(F)c(-c2nc(C(=O)Nc3cnccc3[C@@H]3C[C@@H](N)CC(C)(C)O3)ccc2F)c(F)c1 [Example 313, N-(4-((2S,4R)-4-amino-6,6-dimethyltetrahydro-2H-pyran-2-yl)pyridin-3-yl)-6-(2,6-difluoro-4-methylphenyl)-5-fluoropicolinamide] |
| 109 | 60 | 0.05 | 7.5 | 1.1 | CC1(C)C[C@H](N)C[C@@H](c2ccncc2NC(=O)c2ccc(F)c(-c3c(F)cc(OCCO)cc3F)n2)O1 [Example 314, N-(4-((2S,4R)-4-amino-6,6-dimethyltetrahydro-2H-pyran-2-yl)pyridin-3-yl)-6-(2,6-difluoro-4-(2-hydroxyethoxy)phenyl)-5-fluoropicolinamide] |
| 121 | 200 | 0.07 | 11.7 | 1.5 | COCCOc1cc(F)c(-c2nc(C(=O)Nc3cnccc3[C@@H]3C[C@@H](N)CC(C)(C)O3)ccc2F)c(F)c1 [Example 315, N-(4-((2S,4R)-4-amino-6,6-dimethyltetrahydro-2H-pyran-2-yl)pyridin-3-yl)-6-(2,6-difluoro-4-(2-methoxyethoxy)phenyl)-5-fluoropicolinamide] |
| 3250 | 4670 | 1 | 245 | 42 | C[C@H]1O[C@@H](c2ccncc2NC(=O)c2ccc(F)c(-c3ccccc3)n2)C[C@@H](N)[C@]1(C)O [Example 320, N-(4-((2R,4R,5S,6R)-4-amino-5-hydroxy-5,6-dimethyltetrahydro-2H-pyran-2-yl)pyridin-3-yl)-5-fluoro-6-phenylpicolinamide] |
| 4200 | 190 | 0.3 | 13.4 | 9.7 | COc1cc(F)c(-c2nc(C(=O)Nc3cnccc3[C@H]3C[C@@H](N)[C@H](O)[C@@H](C4CC4)O3)ccc2F)c(F)c1 [Example 323, N-(4-((2R,4R,5S,6R)-4-amino-6-cyclopropyl-5-hydroxytetrahydro-2H-pyran-2-yl)pyridin-3-yl)-6-(2,6-difluoro-4-methoxyphenyl)-5-fluoropicolinamide] |
| > 25000 | 5470 | 4 | 504 | 181 | COc1cc(F)c(-c2nc(C(=O)Nc3cnccc3[C@@H]3C[C@H](N)[C@@H](O)[C@H](C4CC4)O3)ccc2F)c(F)c1 [Example 325, N-(4-((2S,4S,5R,6S)-4-amino-6-cyclopropyl-5-hydroxytetrahydro-2H-pyran-2-yl)pyridin-3-yl)-6-(2,6-difluoro-4-methoxyphenyl)-5-fluoropicolinamide] |
|  | 70 | 0.2 | 11.8 | 6 | CC[C@H]1O[C@@H](c2ccncc2NC(=O)c2ccc(F)c(-c3c(F)cccc3F)n2)C[C@@H](N)[C@@H]1O [Example 331, N-(4-((2R,4R,5S,6R)-4-amino-6-ethyl-5-hydroxytetrahydro-2H-pyran-2-yl)pyridin-3-yl)-6-(2,6-difluorophenyl)-5-fluoropicolinamide] |

Second part, the compound before the results:

| Compound | IC50 [1] [nM] | EC50 [2] [nM] | IC50 [3] [nM] | IC50 [4] [nM] | IC50 [5] [nM] |
| --- | --- | --- | --- | --- | --- |
| CC(C)[C@H]1OC(c2ccncc2NC(=O)c2ccc(F)c(-c3c(F)ccc(C(=O)N(C)C)c3F)n2)C[C@@H](N)[C@@H]1O (stereo in doubt) [Example 317, N-(4-((2S,4R,5S,6R)-4-amino-5-hydroxy-6-isopropyltetrahydro-2H-pyran-2-yl)pyridin-3-yl)-6-(3-(dimethylcarbamoyl)-2,6-difluorophenyl)-5-fluoropicolinamide] | > 25000 | 80 | 1 | 6.6 | 9.6 |
| COCCOc1cc(F)c(-c2nc(C(=O)Nc3cnccc3C3C[C@@H](N)[C@H](O)[C@@H](C(C)C)O3)ccc2F)c(F)c1 (stereo in doubt) [Example 318, N-(4-((2S,4R,5S,6R)-4-amino-5-hydroxy-6-isopropyltetrahydro-2H-pyran-2-yl)pyridin-3-yl)-6-(2,6-difluoro-4-(2-methoxyethoxy)phenyl)-5-fluoropicolinamide] | 1160 | 80 | 0.05 | 2.3 | 1.7 |
| C[C@@H]1O[C@H](c2ccncc2NC(=O)c2ccc(F)c(-c3c(F)cccc3F)n2)C[C@H](N)[C@@]1(C)O [Example 220, N-(4-((2S,4S,5R,6S)-4-amino-5-hydroxy-5,6-dimethyltetrahydro-2H-pyran-2-yl)pyridin-3-yl)-6-(2,6-difluorophenyl)-5-fluoropicolinamide] | 9140 | 6210 | 2.09 | 228 | 29.9 |
| C[C@H]1O[C@@H](c2ccncc2NC(=O)c2ccc(F)c(-c3ccc(S(C)(=O)=O)cc3)n2)C[C@@H](N)[C@]1(C)O [Example 321, N-(4-((2R,4R,5S,6R)-4-amino-5-hydroxy-5,6-dimethyltetrahydro-2H-pyran-2-yl)pyridin-3-yl)-5-fluoro-6-(4-(methylsulfonyl)phenyl)picolinamide] | 1880 | > 10000 | 4.7 | 1370 | 783 |
| Cc1cc(F)c(-c2nc(C(=O)Nc3cnccc3[C@H]3C[C@@H](N)[C@H](O)[C@@H](C4CC4)O3)ccc2F)c(F)c1 [Example 322, N-(4-((2R,4R,5S,6R)-4-amino-6-cyclopropyl-5-hydroxytetrahydro-2H-pyran-2-yl)pyridin-3-yl)-6-(2,6-difluoro-4-methylphenyl)-5-fluoropicolinamide] | 5240 | 230 | 0.3 | 6.7 | 9 |
| Cc1cc(F)c(-c2nc(C(=O)Nc3cnccc3[C@@H]3C[C@H](N)[C@@H](O)[C@H](C4CC4)O3)ccc2F)c(F)c1 [Example 324, N-(4-((2S,4S,5R,6S)-4-amino-6-cyclopropyl-5-hydroxytetrahydro-2H-pyran-2-yl)pyridin-3-yl)-6-(2,6-difluoro-4-methylphenyl)-5-fluoropicolinamide] | > 25000 | 4320 | 3.4 | 396 | 184 |
| CS(=O)(=O)c1cc(F)c(-c2nc(C(=O)Nc3cnccc3[C@@H]3C[C@H](N)[C@@H](O)[C@H](C4CC4)O3)ccc2F)c(F)c1 [Example 326, N-(4-((2S,4S,5R,6S)-4-amino-6-cyclopropyl-5-hydroxytetrahydro-2H-pyran-2-yl)pyridin-3-yl)-6-(2,6-difluoro-4-(methylsulfonyl)phenyl)-5-fluoropicolinamide] | > 25000 | > 10000 | 27.5 | 2200 | 1930 |
| CC[C@@H]1O[C@H](c2ccncc2NC(=O)c2ccc(F)c(-c3c(F)cccc3F)n2)C[C@H](N)[C@H]1O [Example 332, N-(4-((2S,4S,5R,6S)-4-amino-6-ethyl-5-hydroxytetrahydro-2H-pyran-2-yl)pyridin-3-yl)-6-(2,6-difluorophenyl)-5-fluoropicolinamide] |  | 4200 | 6.3 | 310 | 157 |
